From paper PMC3541360 (2013) come the findings set out here.

In experiment [1] the test system is -80 G4 (oligo Tr-80-I) (DNA, G4) CGGGGGCGCGTGAGGGGCGGGGTGGGC
Kind of experiment: fluorescent intercalator displacement (thiazole orange). As to conditions: 60 mM K+; 10 mM potassium cacodylate pH 7.4, 50 mM KCl; 0.25 µM DNA, 0.50 µM thiazole orange displaced.

Experiment [2] has as its system MNSG4 (oligo TrMNS-I) (DNA, G4) TGGGTCTGAGGGAGGAGGGGCTGGGGGC
The experiment is described as above. Conditions: 60 mM K+; 10 mM potassium cacodylate pH 7.4, 50 mM KCl; 0.25 µM DNA, 0.50 µM thiazole orange displaced.

The test system is the same in experiment [3]. The experiment can be described thus: CD melting, 295 nm. Conditions: 100 mM K+; 10 mM Tris-HCl pH 7.4; 5 µM DNA, 10 µM compound; absolute Tm, free DNA 71.4±0.5 °C.

For the compound `[Cl-].[Cl-].[Cl-].[Cl-].[Cu+2].[Cu+2].c1ccc(CN(CCOc2cc(-c3ccccn3)nc(-c3ccccn3)c2)Cc2ccccn2)nc1`, in experiment [1], the “−80 G4DC50” value is recorded as 0.19 µM. This compound also registered an MSN1DC50 in experiment [2] of 0.31 µM. Further, the “Tm (with ligand)” value in experiment [3] was determined as 86.2±2.1 °C.

`[Cl-].[Cl-].[Pt+2].[Pt+2].c1ccc(CN(CCOc2cc(-c3ccccn3)nc(-c3ccccn3)c2)Cc2ccccn2)nc1`: the “−80 G4DC50” value in experiment [1] is 2.22 µM. The MSN1DC50 in experiment [2] worked out at 0.39 µM.

Turning to `[Pt+2].[S-]CCN1CCCCC1.c1ccc(-c2cc(OCCN3CCOCC3)cc(-c3ccccn3)n2)nc1`, the “−80 G4DC50” value in experiment [1] is 0.55 µM. In experiment [2], this compound displayed an MSN1DC50 of 0.76 µM.
